Experimental findings from US20050009748A1, “Compositions for delivering peptide YY and PYY agonists” (Emisphere Technologies, Inc., priority 2003, published 2005) are described below.

Where “and” joins values, the source holds several entries; their conditions need not be identical. Equal values may be shown once.

The nature of one series: Liquid oral delivery of PYY[3-36] in rats (oral gavage, serum PYY[3-36] radioimmunoassay). Conditions: oral gavage solution, Delivery Agent 200 mg/kg, PYY[3-36] 0.3 mg/kg, 1 ml/kg. Type of series: in vivo, Male Sprague-Dawley rats. As for the experimental part: SNAC monosodium salt, solid was dissolved in water. The pH of this solution was close to pH 7.5, so no pH adjustments were done. […] The final pH of these solutions was 7.5.
The pH was then lowered to 7.7 by adding HCl (5N). […] The final pH of these solutions varied between 7.5 and 7.6.
Each delivery agent compound (as the free acid or monosodium salts) was dissolved in water. The pH was adjusted to approximately 7.5 by adding HCl (5N) and NaOH (5N) as needed. […] The final pH of these solutions was approximately 7.5.
The typical dosing and sampling protocols were as follows. Male Sprague-Dawley rats weighing between 240-320 g were fasted up to a maximum 24 hours before the experiments and administered ketamine (44 mg/kg) and thorazine (1.5 mg/kg) by intramuscular injection before the test article administration. Afterwards, the anesthetized animals were administered the test article by oral gavage. A dosing group of five animals was administered one of the dosing solutions. For oral gavage (PO), an 11 cm Rusch 8 French catheter was adapted to a 1 ml syringe with a pipette tip. The syringe was filled with dosing solution by drawing the solution through the catheter, which was then wiped dry. The catheter was placed down the esophagus leaving 1 cm of tubing past the incisors. The dosing solution was administered by pressing the syringe plunger.
Blood samples were collected serially from the tail artery, or by cardiac puncture, typically at time=0, 15, 30, 45, 60 and 90 minutes. […] Results from the animals in each group were averaged for each time point.
For the compound `COc1ccc(C(=O)NCCCCCCCC(=O)O)c(O)c1` [Delivery Agent 4, 8-(2-hydroxy-4-methoxybenzoylamino)octanoic acid], the “Mean Peak Serum [PYY(3-36)] (pg/ml) ± SD” value came to 830.246 ± 71.382 pg/mL.

Turning to `O=C(O)CCCCCCCNC(=O)c1c(O)cccc1O` [Delivery Agent 5, 8-(2,6-dihydroxybenzoylamino)octanoic acid], the “Mean Peak Serum [PYY(3-36)] (pg/ml) ± SD” value turned out to be 800.318 ± 40.61 pg/mL.

Take `O=C(O)CCCCCCCNC(=O)c1cc(Br)ccc1O` [Delivery Agent 6, 8-(2-hydroxy-5-bromobenzoylamino)octanoic acid]: the “Mean Peak Serum [PYY(3-36)] (pg/ml) ± SD” value was found to be 812.946 ± 53.616 pg/mL.

As to `O=C(O)CCCCCCCNC(=O)c1cc(Cl)ccc1O` [Delivery Agent 7, 8-(2-hydroxy-5-chlorobenzoylamino)octanoic acid], the “Mean Peak Serum [PYY(3-36)] (pg/ml) ± SD” value was determined as 663.472 ± 135.394 pg/mL.

On to `O=C(O)CCCCCCCNC(=O)c1cc(I)ccc1O` [Delivery Agent 8, 8-(2-hydroxy-5-iodobenzoylamino)octanoic acid], for which the “Mean Peak Serum [PYY(3-36)] (pg/ml) ± SD” value was determined as 276.82 ± 425.45 pg/mL.

As for `Cc1ccc(O)c(C(=O)NCCCCCCCC(=O)O)c1` [Delivery Agent 9, 8-(2-hydroxy-5-methylbenzoylamino)octanoic acid], the “Mean Peak Serum [PYY(3-36)] (pg/ml) ± SD” value came out at 732.912 ± 266.578 pg/mL.

Regarding `O=C(O)CCCCCCCNC(=O)c1cc(F)ccc1O` [Delivery Agent 10, 8-(2-hydroxy-5-fluorobenzoylamino)octanoic acid], the “Mean Peak Serum [PYY(3-36)] (pg/ml) ± SD” value turned out to be 846.416 ± 55.993 pg/mL.

In the case of `O=C(O)CCCCCCCOc1cccc(O)c1` [Delivery Agent 12, 8-(3-hydroxyphenoxy)octanoic acid], the “Mean Peak Serum [PYY(3-36)] (pg/ml) ± SD” value was 845.682 ± 69.846 pg/mL and 1047.46 ± 36.93 pg/mL.

Turning to `O=C(O)CCCCCCCOc1ccc(O)cc1` [Delivery Agent 13, 8-(4-hydroxyphenoxy)octanoic acid], the “Mean Peak Serum [PYY(3-36)] (pg/ml) ± SD” value was determined as 826.48 ± 379.12 pg/mL.

With `N#Cc1ccccc1OCCCCCC(=O)O` [Delivery Agent 14, 6-(2-cyanophenoxy)hexanoic acid], the “Mean Peak Serum [PYY(3-36)] (pg/ml) ± SD” value is 913.536 ± 33.688 pg/mL and 1083.38 ± 78.878 pg/mL.

Assay in the next series: not given
To be noted: rats, end of 7-day study, food found in the stomachs.
Regarding PYY[3-36], the “effect on gastric emptying” value is “no effect on gastric emptying”.

A short description of the next series: Solid oral delivery of PYY[3-36] in feed restricted rats (serum PYY radioimmunoassay). It is filed as in vivo, Male Sprague Dawley rats. To be noted: 1 tablet per animal, Delivery Agent 50 mg/kg, PYY[3-36] 0.3 mg/kg. As for the experimental part:
An oral dosing tube was used.
Blood samples were collected serially from the tail artery, by cardiac puncture, or as in this case by retro-orbitally, typically at time=0, 15, 30, 60 and 90 minutes.
For `O=C(O)CCCCCCCNC(=O)c1cc(Cl)ccc1O` [Delivery Agent 7, 8-(2-hydroxy-5-chlorobenzoylamino)octanoic acid], the “Mean serum peak of PYY (pg/ml) ± SD” value came to 725.96 ± 110.78 pg/mL.

Regarding `O=C(O)CCCCCCCNC(=O)c1cc(F)ccc1O` [Delivery Agent 10, 8-(2-hydroxy-5-fluorobenzoylamino)octanoic acid], the “Mean serum peak of PYY (pg/ml) ± SD” value came to 897.18 ± 549.5 pg/mL.

For `O=C(O)CCCCCCCOc1ccc(O)cc1` [Delivery Agent 18, 8-(4-hydroxyphenoxy)octanoate], the “Mean serum peak of PYY (pg/ml) ± SD” value was found to be 940.33 ± 1090.65 pg/mL.

Staying with this series, now noted: 1 tablet per animal, Delivery Agent 100 mg/kg, PYY[3-36] 0 mg/kg (delivery agent alone).
On to `O=C(O)CCCCCCCNC(=O)c1cc(Cl)ccc1O` [Delivery Agent 7, 8-(2-hydroxy-5-chlorobenzoylamino)octanoic acid], for which the “Mean serum peak of PYY (pg/ml) ± SD” value came to 14.35 ± 19.71 pg/mL.

The series is the same for the next values; noted with them: 1 tablet per animal, Delivery Agent 100 mg/kg, PYY[3-36] 0.3 mg/kg.
`COc1ccc(C(=O)NCCCCCCCC(=O)O)c(O)c1` [Delivery Agent 4, 8-(2-hydroxy-4-methoxybenzoylamino)octanoic acid]: the “Mean serum peak of PYY (pg/ml) ± SD” value was 1821.82 ± 1513.84 pg/mL.

Take `O=C(O)CCCCCCCNC(=O)c1cc(Cl)ccc1O` [Delivery Agent 7, 8-(2-hydroxy-5-chlorobenzoylamino)octanoic acid]: the “Mean serum peak of PYY (pg/ml) ± SD” value worked out at 1064.18 ± 363.8 pg/mL.

In the case of `Cc1ccc(O)c(C(=O)NCCCCCCCC(=O)O)c1` [Delivery Agent 9, 8-(2-hydroxy-5-methylbenzoylamino)octanoic acid], the “Mean serum peak of PYY (pg/ml) ± SD” value stood at 1309.8 ± 836.33 pg/mL.

Take `O=C(O)CCCCCCCOc1ccc(O)cc1` [Delivery Agent 18, 8-(4-hydroxyphenoxy)octanoate]: the “Mean serum peak of PYY (pg/ml) ± SD” value stood at 1216.13 ± 661.31 pg/mL.

Still in this series, the particulars now being: 1 tablet per animal, Delivery Agent 100 mg/kg, PYY[3-36] 0.3 mg/kg, listed as 17.
Consider `O=C(O)CCCCCCCOc1ccc(O)cc1` [Delivery Agent 17, 8-(4-hydroxyphenoxy)octanoate], for which the “Mean serum peak of PYY (pg/ml) ± SD” value is 897.18 ± 549.5 pg/mL.
